Test results taken from patent US6608082B1, “Treatment of erectile dysfunction using isoquinoline compound melanocortin receptor ligands” (Lion Bioscience AG, priority 1998, dated 2003).
Like-named read-outs stand apart in the source and are kept apart here. Each block holds one compound with its values, some of them ahead of it.

Experiments:
MCR-4 = target: T1, MCR-4 (Homo sapiens, UniProt P32245); assay: Melanocortin receptor binding assay, competition with 125I-HP 467, HEK 293 cells expressing hMCR-4; details: for IC50: read-out: MC-4 IC50
T1 construct: expressed in transfected cells; host or cells: HEK 293
T1 sequence (P32245 whole entry): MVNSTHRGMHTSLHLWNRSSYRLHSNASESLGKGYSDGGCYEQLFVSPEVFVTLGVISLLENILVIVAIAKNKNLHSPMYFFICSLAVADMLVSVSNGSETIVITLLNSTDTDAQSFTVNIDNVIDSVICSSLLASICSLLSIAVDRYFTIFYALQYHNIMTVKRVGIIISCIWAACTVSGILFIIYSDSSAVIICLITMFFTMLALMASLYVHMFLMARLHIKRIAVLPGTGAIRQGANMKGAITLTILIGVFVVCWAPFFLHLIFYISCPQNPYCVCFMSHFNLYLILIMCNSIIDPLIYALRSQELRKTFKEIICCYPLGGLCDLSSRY
Procedure, shortened: (§1)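 Intact-cell competition binding, 2.5 hr at 37 °C, in PBS/10% calf serum/1 mM CaCl2; hMCR-4 cells at 4×10^3 per tube, hMCR-1 cells at 2×10^4 per tube. Filtration on BSA/CaCl2-soaked GF/B, cold 50 mM Tris pH 7.4 washes, scintillation count.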

MCR-1 = target: T2, MCR-1 (Homo sapiens, UniProt Q01726); assay: Melanocortin receptor binding assay, competition with 125I-HP 467, HEK 293 cells expressing hMCR-1; details: for IC50: read-out: MC-1 IC50
T2 construct: expressed in transfected cells; host or cells: HEK 293
T2 sequence (Q01726 whole entry): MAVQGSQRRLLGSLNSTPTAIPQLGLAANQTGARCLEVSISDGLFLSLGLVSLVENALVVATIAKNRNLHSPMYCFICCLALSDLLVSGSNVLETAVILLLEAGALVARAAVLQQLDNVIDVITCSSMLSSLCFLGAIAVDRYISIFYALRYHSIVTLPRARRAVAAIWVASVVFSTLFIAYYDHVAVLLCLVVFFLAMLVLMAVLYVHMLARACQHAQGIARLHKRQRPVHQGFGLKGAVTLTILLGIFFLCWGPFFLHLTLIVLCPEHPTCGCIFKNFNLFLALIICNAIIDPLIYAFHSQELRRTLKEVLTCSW
Procedure, shortened: as §1

[1] = TRG 2406 and TRG 2407 libraries, inhibition of binding of 125I-HP 467
[2] = inhibition of binding of 125I-HP 467, HEK 293 cells expressing MCR-4
[3] = inhibition of binding of 125I-HP 467, HEK 293 cells expressing MCR-1
[4] = TRG 2408 and TRG 2409 libraries, inhibition of 125I-HP 467 binding
[5] = inhibition of binding of 125I-HP 467, HEK 293 cells expressing MCR-4, TRG 2414 library
[6] = inhibition of binding of 125I-HP 467, HEK 293 cells expressing MCR-1, TRG 2414 library
[7] = competition with 125I-HP 467, HEK 293 cells expressing MCR-4
[8] = competition with 125I-HP 467, HEK 293 cells expressing MCR-1

SMILES: CCCOc1ccc(C2C(CNCc3ccccc3O)c3ccccc3CN2CC(CN)NC)cc1 (centres unmarked) [TRG 2406-15]
- IC50 (MCR-4; [1]): 2750 nM
- IC50 (MCR-1; [1]): 7220 nM

SMILES: NCC(CCCCN1Cc2ccccc2C(CNCCc2ccc(O)cc2)C1c1cc(C(F)(F)F)cc(C(F)(F)F)c1)NCc1ccccc1 (centres unmarked) [TRG 2421-6]
- IC50 (MCR-4; [2]): 760 nM
- IC50 (MCR-1; [3]): 2250 nM

SMILES: CNCCNC(CN)CCCCN1Cc2ccccc2C(CNC2CCCCC2)C1c1ccc(Cl)cc1Cl (centres unmarked) [TRG 2408-16]
- IC50 (MCR-4; [4]): 6110 nM
- IC50 (MCR-1; [4]): 1790 nM

SMILES: CNC(CN)CN1Cc2ccccc2C(CNCc2ccccc2O)C1c1ccc(Oc2ccccc2)cc1 (centres unmarked) [TRG 2406-12]
- IC50 (MCR-4; [1]): 2620 nM
- IC50 (MCR-1; [1]): 5440 nM

SMILES: CCCOc1ccc(C2C(CNC3CCCCC3)c3ccccc3CN2CCCCC(CN)NCCc2ccccc2)cc1 (centres unmarked) [Cmpd 198]
- IC50 (MCR-4; TRG 2414 library, inhibition of binding of 125I-HP 467, HEK 293 cells expressing MCR-4): 3680 nM
- IC50 (MCR-1; TRG 2414 library, inhibition of binding of 125I-HP 467, HEK 293 cells expressing MCR-1): 3000 nM

SMILES: NCCN1Cc2ccccc2C(CNCc2ccccc2O)C1c1cccc(Oc2ccccc2)c1 (centres unmarked) [TRG 2406-8]
- IC50 (MCR-4; [1]): 5670 nM
- IC50 (MCR-1; [1]): 7480 nM

SMILES: CCNc1ccc(C2C(CNCCc3ccccc3)c3ccccc3CN2CCCC(CN)NCC2CC2CNCc2ccccc2)cc1 (centres unmarked) [TRG 2420-6]
- IC50 (MCR-4; [2]): 5130 nM
- IC50 (MCR-1; [3]): 103 nM

SMILES: NCC(CCCN1Cc2ccccc2C(CNC2CCCCC2)C1c1ccc(-c2ccccc2)cc1)NCCc1ccccc1 (centres unmarked) [TRG 2408-82]
- IC50 (MCR-4; [4]): 16400 nM
- IC50 (MCR-1; [4]): 10200 nM

SMILES: NCC(CCCCN1Cc2ccccc2C(CNCCc2ccc(Cl)cc2)C1c1cc(C(F)(F)F)cc(C(F)(F)F)c1)NCc1ccc(Br)cc1 (centres unmarked) [TRG 2421-33]
- IC50 (MCR-4; [2]): 8360 nM
- IC50 (MCR-1; [3]): 6930 nM

SMILES: COc1ccc(CCNCC2c3ccccc3CN(CCCCC(CN)NCc3ccc(C)cc3)C2c2cc(C(F)(F)F)cc(C(F)(F)F)c2)cc1OC (mixture of isomers) [TRG 2421-17]
- IC50 (MCR-4; [2]): 830 nM
- IC50 (MCR-1; [3]): 2060 nM

Other lines, results leading:

- IC50 (MCR-4; [5]): 38100 nM
- IC50 (MCR-1; [6]): 27400 nM
SMILES: COc1cccc(CNCC2c3ccccc3CN(CCCCC(CN)NCC(C)c3ccc(CC(C)C)cc3)C2c2ccc(Cl)cc2Cl)c1 (centres unmarked) [TRG 2414-20]

- IC50 (MCR-4; [5]): 10000 nM
- IC50 (MCR-1; [6]): 12900 nM
SMILES: COc1ccc(CCNCC2c3ccccc3CN(CCCCC(CN)NCCc3ccccc3)C2c2cccc(Oc3ccccc3)c2)cc1 (centres unmarked) [TRG 2414-106]

- IC50 (MCR-4; [7]): 1490 nM
- IC50 (MCR-1; [8]): 220 nM
SMILES: CCCCNc1ccc(C2C(CNCCc3ccccc3)c3ccccc3CN2CCCCC(CN)NCCc2ccccc2)cc1 (centres unmarked) [TRG 2411-77]

- IC50 (MCR-4; [2]): 230 nM
- IC50 (MCR-1; [3]): 170 nM
SMILES: CCOc1ccc(C2C(CNCCc3ccccc3)c3ccccc3CN2CCCC(CN)NCc2ccccc2)cc1 (centres unmarked) [TRG 2412-21]

- IC50 (MCR-4; [2]): 5040 nM
- IC50 (MCR-1; [3]): 1930 nM
SMILES: CCCCNc1ccc(C2C(CO)c3ccccc3CN2CCCC(CN)NCCC2CCCCC2)cc1 (centres unmarked) [TRG 2415-1]

- IC50 (MCR-4; [5]): 26800 nM
- IC50 (MCR-1; [6]): 2140 nM
SMILES: CCOc1ccccc1CNCC1c2ccccc2CN(CCCCC(CN)NCc2ccccc2)C1c1ccc(Oc2ccccc2)cc1 (centres unmarked) [TRG 2414-127]

- IC50 (MCR-4; [7]): 860 nM
- IC50 (MCR-1; [8]): 550 nM
SMILES: CCNc1ccc(C2C(CNC3CCCCC3)c3ccccc3CN2CCCCC(CN)NCCc2ccc(Br)cc2)cc1 (centres unmarked) [TRG 2411-52]

- IC50 (MCR-4; [2]): 520 nM
- IC50 (MCR-1; [3]): 120 nM
SMILES: CCCCNc1ccc(C2C(CNCCc3ccccc3)c3ccccc3CN2CCCC(CN)NCCCC)cc1 (centres unmarked) [TRG 2411-191]

- IC50 (MCR-4; [2]): 960 nM
- IC50 (MCR-1; [3]): 2520 nM
SMILES: CC(C)Oc1ccc(C2C(CO)c3ccccc3CN2CCCC(CN)NCCC2CCCCC2)cc1 (centres unmarked) [TRG 2415-5]

- IC50 (MCR-4; [7]): 1490 nM
- IC50 (MCR-1; [8]): 1320 nM
SMILES: NCC(CCCN1Cc2ccccc2C(CNCCc2ccccc2)C1c1ccc(-c2ccccc2)cc1)NCc1ccccc1 (centres unmarked) [TRG 2411-126]

- MC-4 IC50 (MCR-4; [5]): no fit
- MC-1 IC50 (MCR-1; [6]): no fit
SMILES: CC(C)Cc1ccc(C(C)CNC(CN)CCCCN2Cc3ccccc3C(CNCCc3cccc(Cl)c3)C2c2ccc(Oc3ccccc3)cc2)cc1 (centres unmarked) [TRG 2414-136]

- IC50 (MCR-4; [5]): 1670 nM
- IC50 (MCR-1; [6]): 10500 nM
SMILES: COc1ccc(CNCC2c3ccccc3CN(CCCCC(N)CN)C2c2cc(C(F)(F)F)cc(C(F)(F)F)c2)cc1 (centres unmarked) [TRG 2414-61]
